Molecules are shown by their SMILES. Calls of active or inactive are those of the source. The calls are words filed in the database; no cut-off is given here.

The values that follow come from ChEMBL document CHEMBL6182910, “Design, Synthesis, and Biological Evaluation of 4-(Difluoromethyl)-1H-imidazole-5-carboxylic Acids/4-(3-Cyanophenoxy)pyrimidine-5-carboxylic Acids as P2Y1 Receptor Antagonists for Ischemic Stroke Treatment” (J Med Chem, 2025).

Data set [1] concerns Rattus norvegicus. The data set is described as follows: Neuroprotective activity in MCAO-induced brain damage Sprague-Dawley rat model assessed as plasma GSH-px level at 2.5 to 10 mg/kg, iv administered immediately after arterial occlusion measured after 24 hrs. It counts as functional. Conditions: dose 2.5-10 mg/kg.
Data set [2] relates to Rattus norvegicus. The data set is described as follows: Neuroprotective activity in MCAO-induced brain damage Sprague-Dawley rat model assessed as improvement in motor co-ordination administered intravenously immediately after arterial occlusion measured after 24 hrs by Longa's method. It counts as functional, organism-based. Conditions: dose 2.5-10 mg/kg, route iv.
A short description of data set [3]: Cmax male Sprague-Dawley rat at 10 mg/kg, po measured up to 24 hrs by LC-MS/MS analysis. It is filed as ADME, organism-based. As to conditions: in vivo.
In data set [4] the test system is Rattus norvegicus. The data set is described as follows: Neuroprotective activity in MCAO-induced brain damage Sprague-Dawley rat model assessed as reduction in brain infarction size at 2.5 mg/kg, iv administered immediately after arterial occlusion measured after 24 hrs by TTC staining based analysis relative to control. It counts as functional. The arrangement: scale not given: the % may be the effect or the level left.

In data set [5] the test system is Rattus norvegicus. The data set is described as follows: Neuroprotective activity in MCAO-induced brain damage Sprague-Dawley rat model assessed as transparent cytoplasm at 2.5 to 10 mg/kg, iv administered immediately after arterial occlusion measured after 24 hrs by H and E staining based analysis. It is filed as functional, organism-based. Conditions: dose 2.5-10 mg/kg.

Data set [6] is described as follows: Antagonist activity at P2Y1 receptor in platelet-rich plasma of male Japanese white rabbit assessed as inhibition of ADP-induced cytosolic Ca2+ level pretreated for 5 mins followed by ADP addition by FLUO-4 AM dye based analysis. It counts as cell-free. Conditions: Oryctolagus cuniculus.
Data set [7] is described as follows: Clearance male Sprague-Dawley rat at 10 mg/kg, po measured up to 24 hrs by LC-MS/MS analysis. It is filed as ADME, organism-based. Conditions: in vivo.
Data set [8] can be described thus: Antioxidant activity assessed as DPPH radical scavenging activity at 60 uM incubated for 30 mins under dark condition by absorbance based method. It counts as functional.
A short description of data set [9]: Half life male Sprague-Dawley rat at 10 mg/kg, po measured up to 24 hrs by LC-MS/MS analysis. Conditions: in vivo. It is filed as ADME, organism-based.
The test system of a further data set is HT-22. The data set is described as follows: Neuroprotective activity against H2O2-induced oxidative stress in mouse HT-22 cells assessed as increase in nuclear Nrf2 level at 10 uM preincubated for 2 hrs followed by H2O2 addition measured after 16 hrs by Western blot analysis. It counts as functional, cell-based. Conditions: time 18.0 hrs. A general note: In western blotting, separated proteins are transferred to a membrane and probed.

Data set [10] concerns Rattus norvegicus. The data set is described as follows: Neuroprotective activity in MCAO-induced brain damage Sprague-Dawley rat model assessed as reduction in neurological deficit scores at 10 mg/kg, iv administered immediately after arterial occlusion measured after 24 hrs by Longa's method. It counts as functional, organism-based.
The nature of data set [11]: Apparent volume of distribution male Sprague-Dawley rat at 10 mg/kg, po measured up to 24 hrs by LC-MS/MS analysis. It is filed as ADME, organism-based. As to conditions: in vivo.
Data set [12] has as its system Rattus norvegicus. The data set is described as follows: Neuroprotective activity in MCAO-induced brain damage Sprague-Dawley rat model assessed as brain infarction size at 2.5 mg/kg, iv administered immediately after arterial occlusion measured after 24 hrs by TTC staining based analysis (reference value: 43.1 %). It counts as functional.
Data set [13] can be described thus: MRT (0 to infinity) male Sprague-Dawley rat at 10 mg/kg, po measured up to 24 hrs by LC-MS/MS analysis. Conditions: in vivo. It is filed as ADME, organism-based.

Broadly, the Cmax is the highest concentration seen after dosing. A word on the IC50: it is the point on the concentration scale where inhibition reaches its midpoint. Broadly, the CL/F is the apparent clearance, not corrected for the fraction that reaches the circulation. As a reminder, the MRT inf is the average time that molecules of a dose stay in the body. As for `N#Cc1cccc(Oc2nc(-c3cccc(C#N)c3)ncc2C(=O)O)c1`, the Activity was 591.5 U/ml with Rattus norvegicus [1]; “Dose-dependent-effect; Outperformed Edaravone And Hnw001 At 10 Mg/Kg” with Rattus norvegicus [2]; 32% with Rattus norvegicus [4]; 6.15% in [8]; “Active; Activity Was Less Than Bptu” in the data set with Rattus norvegicus [10]; 29.3% with Rattus norvegicus [12]. This molecule registered a Cmax in data set [3] (po, 10 mg/kg, 24 h) of 610 ng/mL. For the same molecule, the result in the data set with Rattus norvegicus [5] and with HT-22 was Active. For the same molecule, in [6], the IC50 was determined as 500 nM. The molecule also showed a CL/F in data set [7] of 169 mL/min/kg. In addition, the t1/2 in [9] was found to be 15.7 min. The Vz in [11] turned out to be 7.668 L/kg. In data set [13], this molecule yielded a mean residence time MRT inf of 18.4 min.
On to `N#Cc1cccc(-c2nc(C(F)F)c(C(=O)O)n2OCc2csc(N)n2)c1`, for which the Activity in the data set on Rattus norvegicus [1] is 645.4 U/ml; in the data set on Rattus norvegicus [2], “Dose-dependent-effect; Outperformed Edaravone And Hnw001 At 10 Mg/Kg”; with Rattus norvegicus [4], 40.6%; in data set [8], 4.29%; with Rattus norvegicus [10] it was “Active; Activity Was Less Than Bptu”; with Rattus norvegicus [12] it was 25.6%. In addition, the Cmax in [3] (male, Sprague-Dawley, read-out: Cmax) was 480 ng/mL. Further, the outcome in the data set with Rattus norvegicus [5] and with HT-22 was Active. Besides, the IC50 in [6] was determined as 490 nM. In data set [7], this molecule showed an apparent clearance CL/F of 4630 mL/min/kg.
